Measured values from ChEMBL document CHEMBL1201862, “PubChem BioAssay data set” (2004).
Calls of active or inactive are those of the source.

Legend:
[1] = molecular target: T1, Insulin-degrading enzyme (Homo sapiens, UniProt P14735); experiment: Dose Response: Fluorescence polarization-based cell-based high throughput dose response assay for inhibitors of insulin-degrading enzyme (IDE). [Related pubchem assays: 434962 (Primary screen (IDE inhibitors in singlicate)), 449730 (Counterscreen (Cytotoxicity in triplicate)), 435028 (Confirmation (IDE inhibitors in triplicate)), 434984 (Summary …; type: functional
T1 sequence (P14735 whole entry): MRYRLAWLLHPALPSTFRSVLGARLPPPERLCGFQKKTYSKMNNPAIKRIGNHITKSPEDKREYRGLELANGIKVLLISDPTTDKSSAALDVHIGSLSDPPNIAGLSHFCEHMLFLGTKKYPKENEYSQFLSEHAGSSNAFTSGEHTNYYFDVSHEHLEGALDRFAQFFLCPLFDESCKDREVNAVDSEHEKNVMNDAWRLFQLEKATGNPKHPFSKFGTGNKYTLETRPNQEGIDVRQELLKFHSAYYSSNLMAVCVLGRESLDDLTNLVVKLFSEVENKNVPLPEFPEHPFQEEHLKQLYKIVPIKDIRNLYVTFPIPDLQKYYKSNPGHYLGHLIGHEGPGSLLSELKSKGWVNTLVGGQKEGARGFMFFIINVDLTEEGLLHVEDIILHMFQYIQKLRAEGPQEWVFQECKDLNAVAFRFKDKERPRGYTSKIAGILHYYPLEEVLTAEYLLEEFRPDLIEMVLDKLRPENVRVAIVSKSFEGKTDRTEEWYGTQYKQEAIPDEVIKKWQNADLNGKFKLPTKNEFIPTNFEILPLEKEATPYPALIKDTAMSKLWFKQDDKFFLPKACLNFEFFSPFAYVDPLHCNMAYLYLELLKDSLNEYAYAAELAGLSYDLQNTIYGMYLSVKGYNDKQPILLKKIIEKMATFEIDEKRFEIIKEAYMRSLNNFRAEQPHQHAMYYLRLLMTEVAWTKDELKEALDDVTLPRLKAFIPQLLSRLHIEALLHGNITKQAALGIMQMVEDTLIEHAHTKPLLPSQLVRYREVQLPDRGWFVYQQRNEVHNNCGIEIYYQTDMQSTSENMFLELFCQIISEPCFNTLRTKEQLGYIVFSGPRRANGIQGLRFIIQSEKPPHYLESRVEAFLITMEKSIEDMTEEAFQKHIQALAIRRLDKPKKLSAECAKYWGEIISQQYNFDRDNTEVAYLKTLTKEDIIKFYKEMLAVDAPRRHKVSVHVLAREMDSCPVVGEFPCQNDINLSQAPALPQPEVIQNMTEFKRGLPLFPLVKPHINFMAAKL

[2] = molecular target: T2, Short transient receptor potential channel 4 (Mus musculus, UniProt Q9QUQ5); experiment: block of DAMGO-driven TRPC4 calcium entry – cell-based, HEK293 TRPC4/mu-opioid, Fluo-4 calcium, dose response (AID 434942); type: functional;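 note: potency of inhibitors blocking the TRPC4 calcium response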
T2 sequence (Q9QUQ5 whole entry): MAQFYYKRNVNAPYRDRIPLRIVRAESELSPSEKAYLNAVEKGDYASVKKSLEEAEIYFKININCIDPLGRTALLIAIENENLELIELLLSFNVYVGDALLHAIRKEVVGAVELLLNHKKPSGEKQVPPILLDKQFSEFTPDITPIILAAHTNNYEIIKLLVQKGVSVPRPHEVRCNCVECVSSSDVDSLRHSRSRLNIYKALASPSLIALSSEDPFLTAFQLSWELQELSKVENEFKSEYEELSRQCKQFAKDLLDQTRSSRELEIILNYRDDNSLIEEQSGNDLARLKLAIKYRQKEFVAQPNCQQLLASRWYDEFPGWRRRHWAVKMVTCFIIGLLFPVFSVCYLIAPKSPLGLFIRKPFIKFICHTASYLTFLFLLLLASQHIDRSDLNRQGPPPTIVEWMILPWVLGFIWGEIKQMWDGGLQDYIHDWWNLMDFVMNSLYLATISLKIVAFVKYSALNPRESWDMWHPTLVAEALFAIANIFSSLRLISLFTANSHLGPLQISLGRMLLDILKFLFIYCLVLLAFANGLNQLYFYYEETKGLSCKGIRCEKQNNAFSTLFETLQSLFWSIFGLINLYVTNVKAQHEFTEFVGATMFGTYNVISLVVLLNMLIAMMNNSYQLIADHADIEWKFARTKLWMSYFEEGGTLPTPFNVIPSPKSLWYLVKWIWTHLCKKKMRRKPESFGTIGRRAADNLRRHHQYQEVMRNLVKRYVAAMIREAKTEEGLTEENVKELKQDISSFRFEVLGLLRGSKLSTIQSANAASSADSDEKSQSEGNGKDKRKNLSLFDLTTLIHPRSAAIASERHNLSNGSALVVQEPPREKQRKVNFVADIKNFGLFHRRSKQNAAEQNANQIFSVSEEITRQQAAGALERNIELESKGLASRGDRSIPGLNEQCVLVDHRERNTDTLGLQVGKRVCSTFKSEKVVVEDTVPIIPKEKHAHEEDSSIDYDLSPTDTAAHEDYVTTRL

[3] = Counterscreen for IDE inhibitors: Luminescence-based cell-based high throughput dose response assay to identify compounds that are cytotoxic to HEK cells. [Related pubchem assays: 434962 (Primary screen (IDE inhibitors in singlicate)), 449730 (Counterscreen (Cytotoxicity in triplicate)), 435028 (Confirmation (IDE inhibitors in triplicate)) …; type: functional; settings: HEK293
[4] = antiviral protection against BTV-induced cell death – arbovirus, BSR cells, confirmation (AID 1250); type: functional;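 note: protection from viral cytopathic effect measured as cell viability by ATP luminescence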
[5] = A Cell Based Secondary Assay To Explore Cytotoxicity of Compounds that Sensitize Mycobacterium Tuberculosis to Beta-Lactam Antibiotics.; type: functional
[6] = viability of HCT116 lacking mutant beta-catenin – cell-based, human colon tumor, dose response (AID 1045); type: functional;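 note: HCT116 colon tumor cells with beta catenin knocked out; cells exposed to compound for 60 hours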
[7] = cells
[8] = Luminescence Cell-Based Dose Retest to Confirm Inhibitors of Cancer Stem Cells. [Related pubchem assays (depositor defined):AID2717, AID2721]; type: functional; settings: Homo sapiens
[9] = viability of PTEN-deleted HCT116 cells – cell-based, HCT116 PTEN knockout, dose response (AID 1047); type: functional;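 note: HCT116 colon tumor cells with PTEN knocked out; cells exposed to compound for 60 hours before readout; potency for loss of cell viability measured by luminescence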
[10] = viability of uninfected HEp-2 cells – cell-based, HTS, cytotoxicity control for RSV inhibitor project, dose response (AID 2410); type: functional; settings: human respiratory syncytial virus
[11] = molecular target: T3, Bcl-2-like protein 10 (Homo sapiens, UniProt Q9HD36); experiment: Concentration-response of Bcl-B inhibitors by biochemical FP with TR3 (AID 1243); type: functional
T3 sequence (Q9HD36 whole entry): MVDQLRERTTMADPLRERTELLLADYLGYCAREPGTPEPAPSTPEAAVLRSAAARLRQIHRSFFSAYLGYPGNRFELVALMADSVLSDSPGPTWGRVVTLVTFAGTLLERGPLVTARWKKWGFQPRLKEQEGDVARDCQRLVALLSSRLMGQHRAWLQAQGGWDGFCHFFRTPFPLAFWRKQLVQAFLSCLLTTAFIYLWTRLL

[12] = molecular target: Lysosomal acid glucosylceramidase (Homo sapiens, UniProt P04062); experiment: Dose response cell-based high throughput screening assay to identify enhancers of beta-glucosidase activity. [Related pubchem assays: 784 ]; type: functional
Lysosomal acid glucosylceramidase, sequence (P04062 whole entry): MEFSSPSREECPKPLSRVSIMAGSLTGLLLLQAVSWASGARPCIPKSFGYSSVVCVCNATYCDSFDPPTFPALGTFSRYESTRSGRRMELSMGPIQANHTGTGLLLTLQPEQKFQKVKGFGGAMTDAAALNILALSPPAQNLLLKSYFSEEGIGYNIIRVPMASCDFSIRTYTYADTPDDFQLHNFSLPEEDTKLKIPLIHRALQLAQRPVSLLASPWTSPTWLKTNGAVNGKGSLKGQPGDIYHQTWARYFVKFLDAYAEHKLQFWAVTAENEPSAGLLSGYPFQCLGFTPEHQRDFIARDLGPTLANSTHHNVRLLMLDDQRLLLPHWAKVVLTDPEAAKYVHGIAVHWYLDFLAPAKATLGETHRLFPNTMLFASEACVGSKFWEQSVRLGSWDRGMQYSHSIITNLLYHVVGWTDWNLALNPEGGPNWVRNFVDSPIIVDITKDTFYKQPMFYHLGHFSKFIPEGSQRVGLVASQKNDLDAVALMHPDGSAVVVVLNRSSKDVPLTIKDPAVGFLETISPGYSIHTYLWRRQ

[13] = alpha-synuclein stem-loop luciferase translation blockers – H4 neuroglioma cells, luminescence, confirmation (AID 1988); type: functional, cell-based
[14] = luciferase reporter signal suppression in cells – H4 neuroglioma cells, luminescence, dose response (AID 1990); type: functional, cell-based
[15] = Luminescence Cell-Based Dose Response HTS to Identify Inhibitors of 5'UTR Stem-Loop Driven Prion Protein mRNA Translation in H4 Neuroglioblastoma Cells. [Related pubchem assays: 1827 (Project Summary), 1813 (Primary HTS)]; type: functional
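Throughout, for AC50: cells exposed to compound for roughly 70 hours or longer before luminescence read.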

In the case of Cc1cccc(-c2nnc(SCc3nc4ccccc4[nH]3)n2Cc2ccco2)c1, the IC50 [1] is reported as 5.67 µM (active), the EC50 [2] is reported as 1.19 µM (active) and the IC50 [3] is reported as 22.5 µM (not active).

With CC(C)Cn1c2c(c(O)c(C(=O)Nc3nccs3)c1=O)CCCC2 the IC50 [4] was 94.4 µM (active) and the CC50 [5] was > 40 µM (active).

For COc1ccc2c(c1)-c1nc(NC(=O)c3cccs3)sc1CC2, the EC50 [6] was 21.4 µM (active), the IC50 [7] was 26.8 µM (active) and the AC50 [8] was 6.23 µM (active). For the same compound, the EC50 [9] was 22 µM (active) and the CC50 [10] was 7.91 µM (active).

In the case of O=C(O)C1Nc2ccc3ccccc3c2C2C=CCC12 (configuration not stated), the EC50 [11] is reported as 7.15 µM (active).

In the case of Cc1cc2ccccc2c(=O)n1CC(=O)NCC(=O)N1CCN(c2ccccc2)CC1, the EC50 [12] is reported as > 10 µM (not active).

With COc1ccc(/N=C2/C(=N\c3ccc(OC)cc3)N(c3ccc(OC)cc3)C(=S)N2c2ccc(N(C)C)cc2)cc1 the IC50 [7] was 5.89 µM (active), the EC50 [13] was 0.123 µM (active) and the EC50 [14] was 0.146 µM (active). For the same compound, the CC50 [10] was > 50 µM (active) and the EC50 [15] was 0.126 µM (active).
